# Results: US20130101628A1 (NORTHWESTERN UNIVERSITY, priority 2011, published 2013)
# Assays:
# [1] = biological target: T1, VEGF receptor 2 (VEGFR2 or KDR) (Homo sapiens, UniProt P35968); experiment: Sandwich ELISA of phosphorylated VEGFR2 in lysates of stimulated HUVEC; format: cell-based
# T1 construct: host or cells: HUVEC
# Procedure: (§1) Human umbilical vein endothelial cells (HUVECs) and complete endothelial cell growth media (EGM) were purchased (Genlantis, San Diego, Calif.), passaged two times following receipt, and cryo-preserved in media with 5% DMSO. Cells were thawed as needed and grown to confluence in a […] flasks (VWR Falcon) prior to plating for experiments.
# (§2) Phosphorylation of both VEGFRI and VEGFR2 was assayed using commercially available assay kit (R&D Systems, Minneapolis, Minn.) following the recommended protocol. First, confluent HUVECs plated in 24 well plates were starved for 5 hours in serum-free defined media (SFDM, Genlantis) specifically designed to maintain cells in a growth factor-free setting for growth factor signaling and metabolic assays. Following starvation, the various treatments were dissolved in SFDM to a concentration of 1 μM. […] Cells were exposed to treatment for 2 minutes. To evaluate the time-course of phosphorylation the same protocol was followed and cells were exposed to VEGF-PA for 0, 1, 3, 5, 10, 15, 20, 25, 30, 40, 50, and 60 minutes.
# [2] = biological target: T2, VEGF receptor 1 (VEGFR1 or Flt-1) (Homo sapiens, UniProt P17948); experiment: Sandwich ELISA of phosphorylated VEGFR1 in lysates of stimulated HUVEC; format: cell-based; settings: HUVEC, native VEGF 100 ng/ml positive control, 2 minutes exposure
# T2 construct: host or cells: HUVEC
# T2 sequence (P17948 27-1338): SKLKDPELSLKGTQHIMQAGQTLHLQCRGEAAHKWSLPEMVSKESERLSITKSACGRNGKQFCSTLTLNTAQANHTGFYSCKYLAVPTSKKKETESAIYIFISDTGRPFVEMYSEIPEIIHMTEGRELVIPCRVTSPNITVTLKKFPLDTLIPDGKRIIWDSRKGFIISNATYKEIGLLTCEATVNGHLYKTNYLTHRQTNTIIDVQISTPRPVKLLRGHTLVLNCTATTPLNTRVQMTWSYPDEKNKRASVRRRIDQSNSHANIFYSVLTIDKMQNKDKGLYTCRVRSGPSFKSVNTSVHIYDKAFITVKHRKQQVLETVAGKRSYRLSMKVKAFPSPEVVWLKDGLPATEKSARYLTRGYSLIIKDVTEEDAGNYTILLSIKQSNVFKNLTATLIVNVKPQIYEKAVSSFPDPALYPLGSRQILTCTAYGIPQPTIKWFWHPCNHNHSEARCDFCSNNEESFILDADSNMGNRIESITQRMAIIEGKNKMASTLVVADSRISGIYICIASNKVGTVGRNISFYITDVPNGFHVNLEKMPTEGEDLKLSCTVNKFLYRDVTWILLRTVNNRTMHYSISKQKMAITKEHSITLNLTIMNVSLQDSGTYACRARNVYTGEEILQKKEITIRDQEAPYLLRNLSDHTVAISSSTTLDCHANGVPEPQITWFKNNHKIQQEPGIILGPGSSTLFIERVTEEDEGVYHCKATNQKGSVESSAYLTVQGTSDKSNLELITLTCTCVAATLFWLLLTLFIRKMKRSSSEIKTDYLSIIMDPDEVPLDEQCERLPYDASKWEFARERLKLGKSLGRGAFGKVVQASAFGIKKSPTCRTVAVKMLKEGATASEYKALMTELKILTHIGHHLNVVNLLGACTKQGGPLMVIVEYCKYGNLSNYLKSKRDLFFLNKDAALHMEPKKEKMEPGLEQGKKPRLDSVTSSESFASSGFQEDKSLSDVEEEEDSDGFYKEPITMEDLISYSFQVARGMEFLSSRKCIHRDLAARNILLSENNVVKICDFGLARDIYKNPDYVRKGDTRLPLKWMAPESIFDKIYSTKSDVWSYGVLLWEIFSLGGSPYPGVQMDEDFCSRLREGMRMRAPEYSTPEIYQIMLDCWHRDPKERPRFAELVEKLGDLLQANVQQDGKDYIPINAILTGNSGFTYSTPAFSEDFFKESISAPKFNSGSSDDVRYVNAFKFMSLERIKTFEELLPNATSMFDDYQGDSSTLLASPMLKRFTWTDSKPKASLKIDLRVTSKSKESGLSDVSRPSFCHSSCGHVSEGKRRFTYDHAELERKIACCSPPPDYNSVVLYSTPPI
# Procedure: as §1, §2
# T1 sequence (P35968 20-1356): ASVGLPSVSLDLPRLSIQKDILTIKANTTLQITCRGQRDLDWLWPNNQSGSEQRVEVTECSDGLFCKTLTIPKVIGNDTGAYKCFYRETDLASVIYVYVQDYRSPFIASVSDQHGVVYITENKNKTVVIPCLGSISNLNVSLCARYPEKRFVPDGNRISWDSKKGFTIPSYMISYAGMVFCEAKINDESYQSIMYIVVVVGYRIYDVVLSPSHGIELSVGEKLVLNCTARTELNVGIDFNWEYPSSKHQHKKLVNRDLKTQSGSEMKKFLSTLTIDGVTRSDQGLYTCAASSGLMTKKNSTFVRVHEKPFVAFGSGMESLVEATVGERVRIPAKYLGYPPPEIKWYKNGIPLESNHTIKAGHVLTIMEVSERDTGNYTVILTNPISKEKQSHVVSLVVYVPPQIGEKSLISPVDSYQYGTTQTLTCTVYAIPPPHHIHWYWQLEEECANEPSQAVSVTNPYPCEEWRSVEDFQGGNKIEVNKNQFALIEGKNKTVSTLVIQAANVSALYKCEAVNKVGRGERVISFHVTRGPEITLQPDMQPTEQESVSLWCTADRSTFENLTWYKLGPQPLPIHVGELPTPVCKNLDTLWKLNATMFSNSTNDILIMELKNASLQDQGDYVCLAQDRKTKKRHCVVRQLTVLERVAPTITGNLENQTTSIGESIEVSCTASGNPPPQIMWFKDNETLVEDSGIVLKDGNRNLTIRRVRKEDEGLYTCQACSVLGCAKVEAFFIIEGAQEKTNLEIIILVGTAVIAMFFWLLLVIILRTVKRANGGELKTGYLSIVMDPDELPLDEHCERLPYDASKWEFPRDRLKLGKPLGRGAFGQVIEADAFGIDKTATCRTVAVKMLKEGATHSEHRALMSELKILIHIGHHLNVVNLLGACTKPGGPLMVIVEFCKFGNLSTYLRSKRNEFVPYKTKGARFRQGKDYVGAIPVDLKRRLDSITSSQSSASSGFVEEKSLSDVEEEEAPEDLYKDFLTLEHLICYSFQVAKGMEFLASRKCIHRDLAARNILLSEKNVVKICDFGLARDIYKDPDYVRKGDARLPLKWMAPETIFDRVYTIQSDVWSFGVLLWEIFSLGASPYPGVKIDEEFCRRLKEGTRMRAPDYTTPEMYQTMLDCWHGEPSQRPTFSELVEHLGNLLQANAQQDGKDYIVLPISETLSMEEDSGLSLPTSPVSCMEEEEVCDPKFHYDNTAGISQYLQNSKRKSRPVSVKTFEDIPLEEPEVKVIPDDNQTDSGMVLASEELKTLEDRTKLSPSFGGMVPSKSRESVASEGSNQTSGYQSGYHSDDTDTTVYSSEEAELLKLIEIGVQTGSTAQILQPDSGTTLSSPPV
substance,measurement,setting,value
VEGF,VEGFR2 phosphorylation level relative to untreated control,[1],1.311±0.106
same,"amount of phosphorylated VEGFR1, times untreated control",[2],1.306±0.044
